Reference: patent US12637687B2, “Nucleic acid molecules, polypeptides having epoxy group-removing catalytic activity and use thereof” (SHANDONG AGRICULTURAL UNIVERSITY, priority 2020, dated 2026)

B1: ThFhb7: de-epoxidase from Thinopyrum ponticum; polypeptide having epoxy group-removing catalytic activity, amino acid sequence SEQ ID NO: 36, gene SEQ ID NO: 1 (protein, listed as Elytrigia ponticum)
chain: MATSASTSTPIIPTAIAGAPPVAGTCCAVAPTLSALALAPLAVPTTTTTVLMPAISSVAASLAVPACALPAAGSAPATLPIIHAPATASLVGASPAIAATLGATTPASGAGALPPPGLLATAVGAAMPGLLIPLSGIAASPGLAATAAPASAVAAAPTAHVGLMVHGLPLAPATAAVTLAGPVAAAGLSSTAALGMVGGAAALMMGSLAAMLGALAALPALAASGPPLLGGAATTAAMIVGGTLAMMAATLPVSGTGGAAACHGAIPGGLHAALALTAGVL

Columns and labels:
[1] = tested on: ThFhb7; design: species or system Thinopyrum ponticum; details: in vivo
[2] = tested on: ThFhb7; assay type: cell-based, Thinopyrum ponticum
[3] = tested on: pancreatic cancer cell line (PATU8988); assay: Cytotoxicity assay by CCK8 method; details: PATU8988, 48 h treatment, CCK-8, OD450
[4] = tested on: human embryonic kidney cell 293-derived line (293T); assay: Cytotoxicity assay by CCK8 method; details: 48 h treatment, CCK-8, OD450
[5] = tested on: normal human esophageal epithelial cells (HEECs); assay: Cytotoxicity assay by CCK8 method; details: 48 h treatment, CCK-8, OD450
[6] = In vitro enzymatic reaction system of ThFhb7 polypeptide (DON + GSH, LC-HRMS); assay type: biochemical
Description: The optimal conditions for the in vitro enzymatic reaction system of ThFhb7 polypeptide were established by gradient experiments of three different factors affecting the enzymatic reaction: • (1) the gradient of reaction enzyme amounts: 1 μg, 5 μg, 10 μg, 25 μg, and 50 μg; • (2) the pH gradient set with various buffers: ranging from 3.0 to 10.0, disodium hydrogen phosphate-citric acid buffer (pH=3.0, 4.0, 5.0), disodium hydrogen phosphate-potassium dihydrogen phosphate buffer (pH=6.0, 7.0), and Tris-phosphate buffer (pH=8.0, 9.0, 10.0); and • (3) the gradient of reaction temperatures: 4° C., 12° C., 15° C., 20° C., 25° C., 30° C., 37° C., 45° C., and 50° C.
The reaction was performed in a phosphate buffer (PBS) (pH=7.0), at 25° C. for 12 h, and samples were taken at 0 h, 0.5 h, 1 h, 3 h, and 6 h respectively for LC-HRMS analysis; through the area results of first-level scanning of LC-HRMS, the changes in the amounts of the two substances, DON as the reaction substrate and the GSH adduct as the reaction product, were obtained with proceeding of reaction, so as to obtain the optimal enzyme amount for the reaction, as shown in FIGS. 14A and 14B. […]

[7] = tested on: F. asiaticum; details: in vivo
[8] = tested on: F. pseudograminearum; details: in vivo
[9] = tested on: F. pseudograminearum; details: in vivo; remark: listed apart in the source
[10] = tested on: Pichia pastoris; assay: DON tolerance of transgenic Pichia pastoris; assay type: cell-based; details: YPDA media comprising 400 μM DON, 5 days

Molecule | amounts decreased as compared with the control [1] | toxin significantly reduced as compared with wheat without ThFhb7 [1] | DON-GSH adduct in DON-treated yeast expressing the active polypeptide [2] | cell viability [3] | cell viability [4] | cell viability [5] | catalysis of vomitoxin into a glutathione adduct in vitro ([6]; DON 1 mg, GSH in PBS, 20° C., 24 h) | enzyme activity above 37° C. (DON-GSH cannot be detected) ([6]; above 37° C., pH 7.0, 25 μg enzyme) | diseased spot area on leaves vs KN199 [7] | diseased spot area on leaves vs KN199 [8] | death rate of transgenic plants vs wild type [9] | degree of disease at the stem base vs control [9] | growth viability vs transgenic yeast with the blank vector [10]
CC(=O)O[C@@H]1C[C@]2(C)[C@@]3(CO)[C@H](O)C(=O)C(C)=C[C@H]3O[C@H]1[C@@]21CO1 [3-ADON, 3-acetyl-deoxynivalenol] | about ⅔ | about ⅓ |  |  |  |  |  |  |  |  |  |  | 
CC1=C[C@H]2O[C@@H]3[C@H](O)C[C@](C)([C@@]2(CO)[C@H](O)C1=O)[C@]31CO1 [DON, deoxynivalenol] | about ⅔ | about ⅓ | detected | decreases sharply | decreases sharply | decreases sharply |  |  |  |  |  |  | 
B1 |  |  |  |  |  |  | efficiently catalyze vomitoxin into a glutathione adduct | basically lost its activity | significantly reduced | significantly reduced | significantly lower | less severe | significantly higher
